Source: US9255100B2 (BAYER INTELLECTUAL PROPERTY GMBH, priority 2010, dated 2016)

Molecular target: T1, N-terminally GST-tagged human full length recombinant Mps-1 kinase (Homo sapiens, UniProt P33981)
T1 construct: N-terminally GST-tagged human full length recombinant Mps-1 kinase; purchased Invitrogen, Karslruhe, Germany PV4071
T1 sequence (P33981 1-857): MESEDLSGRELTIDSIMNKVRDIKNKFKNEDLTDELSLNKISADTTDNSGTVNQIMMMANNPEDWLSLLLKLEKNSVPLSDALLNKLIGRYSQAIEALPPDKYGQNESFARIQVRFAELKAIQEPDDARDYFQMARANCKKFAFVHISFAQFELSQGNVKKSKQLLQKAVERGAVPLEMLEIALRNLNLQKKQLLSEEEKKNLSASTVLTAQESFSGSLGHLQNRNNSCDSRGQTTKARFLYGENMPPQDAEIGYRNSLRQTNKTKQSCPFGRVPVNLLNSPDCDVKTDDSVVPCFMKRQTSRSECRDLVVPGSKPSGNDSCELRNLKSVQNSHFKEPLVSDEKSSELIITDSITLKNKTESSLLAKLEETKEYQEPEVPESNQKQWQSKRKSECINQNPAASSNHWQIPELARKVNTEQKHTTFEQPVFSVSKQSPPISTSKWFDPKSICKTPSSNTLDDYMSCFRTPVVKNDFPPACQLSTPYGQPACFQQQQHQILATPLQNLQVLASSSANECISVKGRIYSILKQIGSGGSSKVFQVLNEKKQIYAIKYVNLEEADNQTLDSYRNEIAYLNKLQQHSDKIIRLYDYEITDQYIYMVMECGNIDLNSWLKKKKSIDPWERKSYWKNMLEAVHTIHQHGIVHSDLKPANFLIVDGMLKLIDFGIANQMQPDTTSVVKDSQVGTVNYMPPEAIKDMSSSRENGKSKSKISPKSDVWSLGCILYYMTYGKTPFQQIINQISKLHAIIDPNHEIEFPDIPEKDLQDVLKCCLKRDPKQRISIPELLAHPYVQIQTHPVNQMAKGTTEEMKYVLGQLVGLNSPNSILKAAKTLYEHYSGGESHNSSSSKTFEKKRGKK
Test: Mps-1 kinase assay (TR-FRET)
Format: biochemical
Conditions: Mps1 IC50 [nM], 10 μM ATP, 1 μM peptide substrate, 60 min at 22° C.
In short: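 Read-out: TR-FRET from Europium-labelled anti-phospho(Ser/Thr) antibody to SA-XLent after 1 h detection incubation at 22° C. Inhibition of kinase activity measured.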

SMILES	IC50 [nM]
CC(C)(O)CNc1cc(-c2ccc(F)cc2)nn2c(-c3ccc(-c4cnc(C5CC5)[nH]4)cc3)cnc12 [Example 8, 1-({3-[4-(2-Cyclopropyl-1H-imidazol-5-yl)phenyl]-6-(4-fluorophenyl)imidazo[1,2-b]pyridazin-8-yl}amino)-2-methylpropan-2-ol]	111
CC(C)CNc1cc(-c2ccc(C(=O)N(C)C)cc2)nn2c(-c3ccc(C(=O)NC4CC4)cc3)cnc12 [Example 109, 4-{3-[4-(Cyclopropylcarbamoyl)phenyl]-8-[(2-methylpropyl)amino]imidazo[1,2-b]pyridazin-6-yl}-N,N-dimethylbenzamide]	2.1
Cc1cc(-c2cnc3c(NCC(C)(C)O)cc(Sc4cccc(C(C)C)c4)nn23)ccc1C(=O)NC1CC1 [Example 273, N-cyclopropyl-4-{8-[(2-hydroxy-2-methylpropyl)amino]-6-[(3-isopropylphenyl)sulfanyl]imidazo[1,2-b]pyridazin-3-yl}-2-methylbenzamide]	0.5
Cc1cc(-c2cnc3c(NCC4CN(C(=O)OC(C)(C)C)C4)cc(-c4ccccc4CO)nn23)ccc1C(=O)NC1CC1 [Example 339, tert-butyl 3-[({3-[4-(cyclopropylcarbamoyl)-3-methylphenyl]-6-[2-(hydroxy-methyl)phenyl]imidazo[1,2-b]pyridazin-8-yl}amino)methyl]azetidine-1-carboxylate]	95.9
Cc1cc(-c2cnc3c(NCC(C)(C)O)cc(SC4CCCCC4)nn23)ccc1C(=O)NC1CC1 [Example 172, 4-{6-(cyclohexylsulfanyl)-8-[(2-hydroxy-2-methylpropyl)amino]imidazo[1,2-b]pyridazin-3-yl}-N-cyclopropyl-2-methylbenzamide]	0.8
CCNC(=O)c1ccc(-c2cnc3c(NCC4CCOCC4)cc(Oc4ccccc4C)nn23)cc1C [Example 596, N-ethyl-2-methyl-4-{6-(2-methylphenoxy)-8-[(tetrahydro-2H-pyran-4-ylmethyl)a-mino]imidazo[1,2-b]pyridazin-3-yl}benzamide]	1.1
Cc1cc(-c2cnc3c(NCC(C)(C)O)cc(OCC4CC4(F)F)nn23)ccc1C(=O)NC1CC1 (racemic) [Example 240, (RS)—N-cyclopropyl-4-{6-[(2,2-difluorocyclopropyl)methoxy]-8-[(2-hydroxy-2-methylpropyl)amino]imidazo[1,2-b]pyridazin-3-yl}-2-methylbenzamide]	1.2
CC(C)CNc1cc(-c2ccc(-c3ccccc3)cc2)nn2c(-c3ccc(C(=O)NC4CC4)cc3)cnc12 [Example 130, 4-{6-(Biphenyl-4-yl)-8-[(2-methylpropyl)amino]imidazo[1,2-b]pyridazin-3-yl}-N-cyclopropylbenzamide]	5.9
Cc1cc(-c2cnc3c(NCC(C)(C)O)cc(Sc4cccc(OC(C)C)c4)nn23)ccc1C(=O)NC1CC1 [Example 271]	1
C=Cc1cc(NCCC(F)(F)F)c2ncc(-c3ccc(C(=O)NC4CC4)c(C)c3)n2n1 [Example 41, N-cyclopropyl-2-methyl-4-{8-[(3,3,3-trifluoropropyl)amino]-6-vinylimidazo[1,2-b]pyridazin-3-yl}benzamide]	7.1
Cc1cc(-c2cnc3c(NCC(C)(C)O)cc(-c4cnn(C)c4)nn23)ccc1C(=O)NC1CC1 [Example 154, N-cyclopropyl-4-{8-[(2-hydroxy-2-methylpropyl)amino]-6-(1-methyl-1H-pyrazol-4-yl)imidazo[1,2-b]pyridazin-3-yl}-2-methylbenzamide]	25
Cc1cccc(Nc2cc(NCC(C)(C)O)c3ncc(-c4ccc(C(=O)NC5CC5)c(C)c4)n3n2)c1 [Example 308, N-cyclopropyl-4-{8-[(2-hydroxy-2-methylpropyl)amino]-6-[(3-methylphenyl)amino]imidazo[1,2-b]pyridazin-3-yl}-2-methylbenzamide]	1
NS(=O)(=O)CCNc1cc(Cl)nn2c(-c3ccc(C(=O)NC4CC4)cc3)cnc12 [Example 98, 4-{6-Chloro-8-[(2-sulfamoylethyl)amino]imidazo[1,2-b]pyridazin-3-yl}-N-cyclopropylbenzamide]	52.3
Cc1cc(-c2cnc3c(NCC(C)(C)O)cc(Nc4ccccc4CO)nn23)ccc1C(=O)NC1CC1 [Example 434, N-cyclopropyl-4-(6-{[2-(hydroxymethyl)phenyl]amino}-8-[(2-hydroxy-2-methylpropyl)amino]imidazo[1,2-b]pyridazin-3-yl)-2-methylbenzamide]	1.3
CSc1cc(NCC(C)(C)O)c2ncc(-c3ccc(C(=O)NC4CC4)c(C)c3)n2n1 [Example 15, N-cyclopropyl-4-{8-[(2-hydroxy-2-methylpropyl)amino]-6-(methylsulfanyl)imidazo[1,2-b]pyridazin-3-yl}-2-methylbenzamide]	21.5

Results, then the compound that gave them:

IC50 [nM]	SMILES
0.1	Cc1cc(-c2cnc3c(NCCC#N)cc(Oc4cccc(F)c4)nn23)ccc1C(=O)NC1CC1 [Example 347, 4-{8-[(2-cyanoethyl)amino]-6-(3-fluorophenoxy)imidazo[1,2-b]pyridazin-3-yl}-N-cyclopropyl-2-methylbenzamide]
0.3	Cc1ccc(F)c(Oc2cc(NCCC(F)(F)F)c3ncc(-c4ccc(C(=O)NC5CC5)c(C)c4)n3n2)c1 [Example 259, N-cyclopropyl-4-{6-(2-fluoro-5-methylphenoxy)-8-[(3,3,3-trifluoropropyl)amino]imidazo[1,2-b]pyridazin-3-yl}-2-methylbenzamide]
0.4	Cc1cc(-c2cnc3c(NCCC(F)(F)F)cc(Oc4ccccc4F)nn23)ccc1C(=O)NC1CC1 [Example 473, N-cyclopropyl-4-{6-(2-fluorophenoxy)-8-[(3,3,3-trifluoropropyl)amino]imidazo[1,2-b]pyridazin-3-yl}-2-methyl-benzamide]
0.2	Cc1cccc(Oc2cc(NCC(C)(C)O)c3ncc(-c4ccc(C(=O)NC5CC5)c(C)c4)n3n2)c1 [Example 97, N-cyclopropyl-4-{8-[(2-hydroxy-2-methylpropyl)amino]-6-(3-methylphenoxy)imidazo[1,2-b]pyridazin-3-yl}-2-methylbenzamide]
0.4	Cc1cc(-c2cnc3c(NCC4CCS(=O)(=O)CC4)cc(Oc4ccc(F)cc4)nn23)ccc1C(=O)NC1CC1 [Example 295A, N-cyclopropyl-4-[8-{[(1,1-dioxidotetrahydro-2H-thiopyran-4-yl)methyl]amino}-6-(4-fluorophenoxy)imidazo[1,2-b]pyridazin-3-yl]-2-methylbenzamide]
0.2	Cc1cc(-c2cnc3c(NCCC(F)(F)F)cc(Oc4ccc(F)cc4)nn23)ccc1C(=O)NC1CC1 [Example 472, N-cyclopropyl-4-{6-(4-fluorophenoxy)-8-[(3,3,3-trifluoropropyl)amino]imidazo[1,2-b]pyridazin-3-yl}-2-methyl-benzamide]
1.5	Cc1cc(-c2cnc3c(NCC4(CO)COC4)cc(Oc4cccc(F)c4)nn23)ccc1C(=O)NC1CC1 [Example 490, N-cyclopropyl-4-[6-(3-fluoro-phenoxy)-8-({[3-(hydroxymethyl)oxetan-3-yl]methyl}amino)imidazo[1,2-b]pyridazin-3-yl]-2-methylbenzamide]
0.5	Cc1cc(-c2cnc3c(NC[C@H]4CC[S@@+]([O-])CC4)cc(Oc4cccnc4)nn23)ccc1C(=O)NC1CC1 [Example 296B, N-cyclopropyl-2-methyl-4-[8-({[(cis)-1-oxidotetrahydro-2H-thiopyran-4-yl]methyl}amino)-6-(pyridin-3-yloxy)imidazo[1,2-b]pyridazin-3-yl]benzamide]
0.2	Cc1cc(-c2cnc3c(NCC4CCN(C)CC4)cc(Oc4cccc(F)c4)nn23)ccc1C(=O)NC1CC1 [Example 311, N-cyclopropyl-4-[6-(3-fluorophenoxy)-8-{[(1-methylpiperidin-4-yl)methyl]amino}imidazo[1,2-b]pyridazin-3-yl]-2-methyl-benzamide]
1.7	Cc1cc(-c2cnc3c(NCCC(F)(F)F)cc(Oc4cccc5c4CCN(C)C5)nn23)ccc1C(=O)NC1CC1 [Example 469, N-cyclopropyl-2-methyl-4-{6-[(2-methyl-1,2,3,4-tetrahydroisoquinolin-5-yl)oxy]-8-[(3,3,3-trifluoropropyl)amino]imidazo[1,2-b]pyridazin-3-yl}benzamide]
< 0.7	Cc1cc(-c2cnc3c(NCC(C)(C)O)cc(Oc4cccc(F)c4)nn23)ccc1C(=O)NC1CC1 [Example 75, N-cyclopropyl-4-{6-(3-fluorophenoxy)-8-[(2-hydroxy-2-methylpropyl)amino]imidazo[1,2-b]pyridazin-3-yl}-2-methylbenzamide]
